Our source for the IC50 values is patent US20200317660A1, “Quinazolinone Compound and Application Thereof” (LUOXIN PHARMACEUTICAL (SHANGHAI) CO., LTD., priority 2017, published 2020).

In general, IC50 refers to the point on the concentration scale where inhibition reaches its midpoint. Read a low IC50 as inhibition by little substance.

The target of one assay is T1, PI3Kα (Homo sapiens, UniProt P42336).
T1 construct: purchased Millipore 14-602-K
Kind of assay: In vitro test of enzyme activity (ADP-Glo lipokinase), PI3K alpha. The class given is biochemical. The conditions noted are these: 40 μM ATP, 50 μM PIP2:3PS, 120 min. As for the experimental part: (§1) 1. In Vitro Test of Enzyme Activity
(§2) The lipokinase reaction was carried out under the conditions of a suitable substrate and ATP, followed by two steps to detect the kinase activity with the ADP-Glo™ kit. The first step was terminating the kinase reaction, wherein the remaining ATP was completely removed and only ADP was left; the second step was adding kinase detection reagents to convert ADP to ATP, accompanied by luciferin/luciferase reaction. Finally, the output value of fluorescence value was converted into kinase activity.
(§3) Experimental materials and equipments:
(§4) 2. Kit: ADP-Glo™ Lipokinase and PIP2:3PS Kit (Promega # V1792)
(§5) The kit contains: 1 mM PIP2:3PS, 10× lipid dilution buffer, 1 M magnesium chloride, 10 mM ATP, 10 mM ADP, ADP-Glo reagent, detection buffer and detection substrate.
(§6) 3. Reaction plate: OptiPlate-384, white and transparent (PerkinElmer #6007299).
(§7) 1. 10× reaction buffer: 500 mM HEPES, pH 7.5, 500 mM NaCl, 9 mM MgCl2; BSA: 10% stock solution, homemade.
(§8) 2. Final test system conditions: 1× reaction system: 50 mM HEPES, 50 mM NaCl, 3 mM MgCl2, 0.01% BSA (freshly prepared on the day of the experiment), 1% DMSO (v/v)+/−compound
(§9) 3. Reaction system: 3 μL mixture of the enzyme and the substrate (1:1)+2 μL ATP/MgCl2 mixture+5 μL ADP-Glo reagent+10 μL detection reagent.
(§10) The detailed experimental procedures are as follows:
(§11) 1. Compound dilution: 50 nL 100×compound/DMSO was transferred to the test well plate with Echo. • For PI3Kα, the compound was diluted three-fold from the highest concentration of 0.111 mM for a total of 10 concentrations. • For PI3Kβ/PI3Kδ/PI3Kγ, the compound was three-fold diluted from the highest concentration of 1.11 mM for a total of 10 concentrations.
(§12) (1) The compound to be tested was prepared and 50 nL of 100 plus compound solution or DMSO was added to the corresponding well plate.
(§13) (2) 3.33 plate reaction buffer was prepared.
(§14) (3) 3.33 solution PIP2:3PS was prepared, PIP2:3PS was thawed for at least 1 minute before use.
(§15) (4) 2.5 mM containing 5.25 mM MgCl2 was prepared.
(§16) (5) 3.33 PI3Kα/PI3Kβ/PI3Kδ/PI3Kγ solution was prepared.
(§17) (6) The lipokinase solution and the PIP2:3PS solution were mixed in a volume ratio of 1:1.
(§18) (7) 3.33: lipokinase buffer and PIP2:3PS solution were mixed in a volume ratio of 1:1.
(§19) (8) 3 μL of buffer solution and PIP2:3PS were added to the first and the second columns of the well plate.
(§20) (9) 3 μL of the mixed solution of the enzyme and PIP2:3PS was added to the wells except the first and the second columns, centrifuged for 10 seconds (1000 rpm) and incubated at 23° C. for 20 minutes.
(§21) (10) 2 μL […] was added and well was shaken.
(§22) (11) The well plate was covered and shaken for about 30 s, then the well plate was incubated at 23° C. for 2 hours.
(§23) (12) 5 μL of ADP-Glo reagent containing 10 mM MgCl2 was added.
(§24) (13) The well plate was centrifuged at 1000 rpm for 10 seconds, and the well plate was then covered, shaken for about 30 seconds, and incubated at 23° C. for 60 minutes.
(§25) (14) 10 μL kinase detection reagent was added.
(§26) (15) The well plate was centrifuged at 1000 rpm for 10 seconds, and then incubated at 23° C. for 60 minutes.
(§27) (16) The fluorescence value was measured on the Envision instrument.
(In general: ADP-Glo first removes unused ATP, then detects ADP through luciferase.)

The next assay has as its target T2, PI3Kβ (Homo sapiens, UniProt P42338).
T2 construct: purchased Promega V1751
The experiment in a line: In vitro test of enzyme activity (ADP-Glo lipokinase), PI3K beta. In kind it is biochemical. The following applies: 40 μM ATP, 50 μM PIP2:3PS, 120 min. As for the experimental part: as §1, §2, §3, §4, §5, §6, §7, §8, §9, §10, §11, §12, §13, §14, §15, §16, §17, §18, §19, §20, §21, §22, §23, §24, §25, §26, §27

T1 sequence (P42336 whole entry): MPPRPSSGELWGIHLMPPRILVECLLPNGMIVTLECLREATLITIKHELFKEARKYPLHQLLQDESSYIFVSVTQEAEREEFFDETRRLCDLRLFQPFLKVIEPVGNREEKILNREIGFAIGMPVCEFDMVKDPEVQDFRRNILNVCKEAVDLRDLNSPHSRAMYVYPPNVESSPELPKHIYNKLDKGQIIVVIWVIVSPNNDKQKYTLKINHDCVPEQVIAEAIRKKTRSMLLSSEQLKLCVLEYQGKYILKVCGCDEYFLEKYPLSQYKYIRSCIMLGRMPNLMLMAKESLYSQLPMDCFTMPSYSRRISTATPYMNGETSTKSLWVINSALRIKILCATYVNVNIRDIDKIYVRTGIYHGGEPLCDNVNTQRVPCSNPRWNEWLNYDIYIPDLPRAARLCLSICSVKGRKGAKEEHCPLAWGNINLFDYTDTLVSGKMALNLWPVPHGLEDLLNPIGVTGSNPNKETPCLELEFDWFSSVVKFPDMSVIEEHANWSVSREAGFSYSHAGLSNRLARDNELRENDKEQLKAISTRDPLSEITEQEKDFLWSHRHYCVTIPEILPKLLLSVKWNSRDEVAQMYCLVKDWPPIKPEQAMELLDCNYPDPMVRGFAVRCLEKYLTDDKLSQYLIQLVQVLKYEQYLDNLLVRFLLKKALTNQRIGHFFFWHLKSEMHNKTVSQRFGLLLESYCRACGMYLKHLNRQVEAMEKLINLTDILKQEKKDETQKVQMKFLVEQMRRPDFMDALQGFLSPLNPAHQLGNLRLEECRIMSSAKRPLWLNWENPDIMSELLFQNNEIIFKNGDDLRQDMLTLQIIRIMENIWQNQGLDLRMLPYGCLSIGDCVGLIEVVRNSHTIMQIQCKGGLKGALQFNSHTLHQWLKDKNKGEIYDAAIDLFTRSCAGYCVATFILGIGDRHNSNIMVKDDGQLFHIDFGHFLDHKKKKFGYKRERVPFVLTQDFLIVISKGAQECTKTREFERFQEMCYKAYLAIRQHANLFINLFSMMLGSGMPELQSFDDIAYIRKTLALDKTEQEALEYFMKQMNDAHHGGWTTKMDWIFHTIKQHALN
T1 sequence (P27986 whole entry partner): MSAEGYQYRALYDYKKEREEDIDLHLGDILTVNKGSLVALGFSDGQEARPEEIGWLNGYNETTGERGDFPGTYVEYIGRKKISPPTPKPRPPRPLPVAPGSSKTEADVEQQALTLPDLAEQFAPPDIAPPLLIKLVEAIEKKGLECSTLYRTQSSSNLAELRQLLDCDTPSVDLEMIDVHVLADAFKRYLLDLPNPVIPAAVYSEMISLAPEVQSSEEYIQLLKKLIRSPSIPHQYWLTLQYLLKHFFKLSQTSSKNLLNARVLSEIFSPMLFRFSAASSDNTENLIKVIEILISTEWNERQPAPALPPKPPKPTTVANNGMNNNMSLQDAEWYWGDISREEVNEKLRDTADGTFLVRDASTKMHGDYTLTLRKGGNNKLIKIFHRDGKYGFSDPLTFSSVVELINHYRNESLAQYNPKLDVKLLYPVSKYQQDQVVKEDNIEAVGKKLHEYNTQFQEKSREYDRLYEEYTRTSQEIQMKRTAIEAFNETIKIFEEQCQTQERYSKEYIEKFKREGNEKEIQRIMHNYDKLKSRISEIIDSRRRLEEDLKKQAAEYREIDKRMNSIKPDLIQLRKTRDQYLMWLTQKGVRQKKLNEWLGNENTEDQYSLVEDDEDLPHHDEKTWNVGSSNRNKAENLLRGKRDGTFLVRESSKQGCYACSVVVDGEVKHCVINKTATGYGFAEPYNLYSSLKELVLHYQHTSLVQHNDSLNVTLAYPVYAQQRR
T2 sequence (P42338 whole entry): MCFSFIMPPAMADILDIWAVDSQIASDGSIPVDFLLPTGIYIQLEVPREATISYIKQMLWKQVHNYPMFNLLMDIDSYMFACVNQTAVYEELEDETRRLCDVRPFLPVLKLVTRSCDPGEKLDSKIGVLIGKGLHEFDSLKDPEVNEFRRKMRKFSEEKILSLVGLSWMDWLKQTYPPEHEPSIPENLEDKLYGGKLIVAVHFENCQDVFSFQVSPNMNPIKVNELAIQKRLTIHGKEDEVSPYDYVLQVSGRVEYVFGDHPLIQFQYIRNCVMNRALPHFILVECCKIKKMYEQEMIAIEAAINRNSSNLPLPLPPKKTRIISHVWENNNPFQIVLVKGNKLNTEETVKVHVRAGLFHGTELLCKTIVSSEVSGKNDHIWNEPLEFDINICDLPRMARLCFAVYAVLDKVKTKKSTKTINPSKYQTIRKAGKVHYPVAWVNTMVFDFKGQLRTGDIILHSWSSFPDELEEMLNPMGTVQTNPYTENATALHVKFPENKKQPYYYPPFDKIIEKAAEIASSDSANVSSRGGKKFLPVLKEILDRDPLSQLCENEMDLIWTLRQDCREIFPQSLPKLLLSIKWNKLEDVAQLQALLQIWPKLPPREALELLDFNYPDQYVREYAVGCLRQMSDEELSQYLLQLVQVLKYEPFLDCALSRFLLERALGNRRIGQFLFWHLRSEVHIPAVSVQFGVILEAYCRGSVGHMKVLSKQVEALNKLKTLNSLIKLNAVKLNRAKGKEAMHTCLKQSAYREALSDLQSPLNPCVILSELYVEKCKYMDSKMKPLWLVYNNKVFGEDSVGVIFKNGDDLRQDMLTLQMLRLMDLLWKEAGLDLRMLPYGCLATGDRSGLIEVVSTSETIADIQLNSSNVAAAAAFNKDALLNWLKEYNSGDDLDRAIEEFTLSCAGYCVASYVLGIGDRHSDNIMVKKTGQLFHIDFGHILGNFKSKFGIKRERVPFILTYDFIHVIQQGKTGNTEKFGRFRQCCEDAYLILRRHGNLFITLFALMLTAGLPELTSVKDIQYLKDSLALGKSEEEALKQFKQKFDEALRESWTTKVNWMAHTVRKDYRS
T2 sequence (P27986 whole entry partner): as the sequence (P27986 whole entry partner) above

In the case of `CNC(=O)C(C)Cn1cnc2ccc(-c3cnc(OC)c(NS(=O)(=O)c4cc(Cl)c(F)cc4F)c3)cc2c1=O` (single isomer, unassigned) [WX096], the IC50 against PI3Kα was determined as 8.51 nM; on PI3Kβ it was 175 nM.

Regarding `COc1ncc(-c2ccc3ncn(CCCC(=O)N4CCCC4)c(=O)c3c2)cc1NS(=O)(=O)c1ccc(F)cc1Cl` [WX199], the results for the IC50 at PI3Kα and at PI3Kβ were 4.86 nM and 199 nM, respectively.

As to `CCOC(=O)CCCn1cnc2ccc(-c3cnc(OC)c(NS(=O)(=O)c4ccc(F)cc4Cl)c3)cc2c1=O` [R001, reference compound], the concentration for half-maximal inhibition (IC50) at PI3Kα was 3.77 nM; against PI3Kβ it was 100 nM.

Take `CNC(=O)C(C)Cn1cnc2ccc(-c3cnc(OC)c(NS(=O)(=O)c4ccc(F)c(C#N)c4)c3)cc2c1=O` (single isomer, unassigned) [WX156]: the IC50 against PI3Kα was determined as 3.56 nM; against PI3Kβ, 498 nM.

For the compound `CNC(=O)C(C)Cn1cnc2ccc(-c3cnc(OC)c(NS(=O)(=O)c4ccc(F)c(Cl)c4)c3)cc2c1=O` (single isomer, unassigned) [WX166], the IC50 at PI3Kα worked out at 5.78 nM; at PI3Kβ it was 222 nM.

For `CNC(=O)C(C)Cn1cnc2ccc(-c3cnc(OC)c(NS(=O)(=O)c4ccc(F)cc4C(F)(F)F)c3)cc2c1=O` (single isomer, unassigned) [WX195], the half-maximal inhibitory concentration (IC50) against PI3Kα was 5.58 nM; against PI3Kβ, 327 nM.

For `CNC(=O)C(C)Cn1cnc2ccc(-c3cnc(OC)c(NS(=O)(=O)c4c(Cl)cccc4Cl)c3)cc2c1=O` (single isomer, unassigned) [WX208], the results for the half-inhibitory concentration (IC50) against PI3Kα and against PI3Kβ were 2.49 nM and 119 nM, respectively.

Take `CNC(=O)C(C)Cn1cnc2ccc(-c3cnc(OC)c(NS(=O)(=O)c4ccc(F)cc4C)c3)cc2c1=O` (single isomer, unassigned) [WX180]: the IC50 turned out to be 10.2 nM against PI3Kα and 411 nM against PI3Kβ.

For the compound `CNC(=O)[C@H](C)Cn1cnc2ccc(-c3cnc(OC)c(NS(=O)(=O)c4ccc(OC)cc4)c3)cc2c1=O` [WX203], the values for the half-inhibitory concentration (IC50) at PI3Kα and against PI3Kβ were 12.8 nM and 595 nM, respectively.

`CNC(=O)C(C)Cn1cnc2ccc(-c3cnc(OC)c(NS(=O)(=O)c4ccc(Cl)cc4C)c3)cc2c1=O` (single isomer, unassigned) [WX218]: the half-inhibitory concentration (IC50) on PI3Kα came out at 5.04 nM; against PI3Kβ it was 216 nM.

On to `CNC(=O)C(C)Cn1cnc2ccc(-c3cnc(OC)c(NS(=O)(=O)c4ccc(C)cc4C)c3)cc2c1=O` (single isomer, unassigned) [WX092], for which the IC50 against PI3Kα is 6.47 nM; against PI3Kβ it was 250 nM.

As to `CNC(=O)[C@@H](C)Cn1cnc2ccc(-c3cnc(OC)c(NS(=O)(=O)c4cc(C)cc(Cl)c4)c3)cc2c1=O` [WX184], the figures for the IC50 at PI3Kα and against PI3Kβ were 8.14 nM and 192 nM, respectively.

Take `CNC(=O)C(C)Cn1cnc2ccc(-c3cnc(OC)c(NS(=O)(=O)c4ccc(F)c(Cl)c4)c3)cc2c1=O` (single isomer, unassigned) [WX167]: the IC50 was found to be 13 nM against PI3Kα and 159 nM against PI3Kβ.

Consider `CNC(=O)C(C)Cn1cnc2ccc(-c3cnc(OC)c(NS(=O)(=O)c4cccc(C)c4F)c3)cc2c1=O` (single isomer, unassigned) [WX219], for which the 50% inhibitory concentration (IC50) was found to be 5.36 nM on PI3Kα and 276 nM against PI3Kβ.

Consider `CNC(=O)C(C)Cn1cnc2ccc(-c3cnc(OC)c(NS(=O)(=O)c4cc(F)cc(F)c4)c3)cc2c1=O` (single isomer, unassigned) [WX193], for which the IC50 came to 12.6 nM against PI3Kα and 451 nM on PI3Kβ.

Regarding `CNC(=O)C(C)Cn1cnc2ccc(-c3cnc(OC)c(NS(=O)(=O)c4ccc(F)cc4)c3)cc2c1=O` (single isomer, unassigned) [WX088], the IC50 against PI3Kα was 8 nM; against PI3Kβ, 211 nM.

Regarding `CNC(=O)C(C)Cn1cnc2ccc(-c3cnc(OC)c(NS(=O)(=O)c4cc(Cl)ccc4C)c3)cc2c1=O` (single isomer, unassigned) [WX221], the IC50 at PI3Kα was determined as 4.61 nM; on PI3Kβ, 162 nM.

Take `CNC(=O)C(C)Cn1cnc2ccc(-c3cnc(OC)c(NS(=O)(=O)c4cc(C)cc(F)c4)c3)cc2c1=O` (single isomer, unassigned) [WX187]: the figures for the concentration for half-maximal inhibition (IC50) on PI3Kα and against PI3Kβ were 4.84 nM and 331 nM, respectively.

`CNC(=O)[C@H](C)Cn1cnc2ccc(-c3cnc(OC)c(NS(=O)(=O)c4cc(Cl)ccc4Cl)c3)cc2c1=O` [WX182]: the results for the IC50 on PI3Kα and on PI3Kβ were 1.47 nM and 73.3 nM, respectively.

Turning to `CNC(=O)C(C)Cn1cnc2ccc(-c3cnc(OC)c(NS(=O)(=O)c4cccc(C)c4F)c3)cc2c1=O` (single isomer, unassigned) [WX220], the half-inhibitory concentration (IC50) against PI3Kα was 10.1 nM; against PI3Kβ, 139 nM.

As to `CNC(=O)C(C)Cn1cnc2ccc(-c3cnc(OC)c(NS(=O)(=O)c4sccc4C)c3)cc2c1=O` (single isomer, unassigned) [WX209], the IC50 amounted to 4.08 nM at PI3Kα and 176 nM at PI3Kβ.

Consider `COc1ncc(-c2ccc3ncn(CC(C)(C)C(N)=O)c(=O)c3c2)cc1NS(=O)(=O)c1ccc(F)cc1Cl` [WX020], for which the 50% inhibitory concentration (IC50) against PI3Kα turned out to be 10.2 nM; against PI3Kβ, 413 nM.

`CNC(=O)C(C)Cn1cnc2ccc(-c3cnc(OC)c(NS(=O)(=O)c4ccc(Cl)cc4C)c3)cc2c1=O` (single isomer, unassigned) [WX217]: the 50% inhibitory concentration (IC50) against PI3Kα came out at 3.47 nM; at PI3Kβ it was 269 nM.

Consider `CNC(=O)[C@@H](C)Cn1cnc2ccc(-c3cnc(OC)c(NS(=O)(=O)c4c(Cl)cccc4Cl)c3)cc2c1=O` [WX207], for which the concentration for half-maximal inhibition (IC50) against PI3Kα was 0.85 nM; against PI3Kβ, 20.5 nM.

Consider `CNC(=O)[C@H](C)Cn1cnc2ccc(-c3cnc(OC)c(NS(=O)(=O)c4ccc(Cl)c(C)c4)c3)cc2c1=O` [WX190], for which the 50% inhibitory concentration (IC50) stood at 13.2 nM against PI3Kα and 205 nM against PI3Kβ.

`CNC(=O)C(C)Cn1cnc2ccc(-c3cnc(OC)c(NS(=O)(=O)c4ccc(C)c(Cl)c4)c3)cc2c1=O` (single isomer, unassigned) [WX160]: the concentration for half-maximal inhibition (IC50) was determined as 11.2 nM at PI3Kα and 2100 nM against PI3Kβ.

Take `CNC(=O)C(C)Cn1cnc2ccc(-c3cnc(OC)c(NS(=O)(=O)c4ccc(C)c(Cl)c4)c3)cc2c1=O` (single isomer, unassigned) [WX161]: the IC50 on PI3Kα came to 8.92 nM; against PI3Kβ, 153 nM.

For the compound `CNC(=O)[C@H](C)Cn1cnc2ccc(-c3cnc(OC)c(NS(=O)(=O)c4cccc(C)c4Cl)c3)cc2c1=O` [WX188], the values for the IC50 against PI3Kα and at PI3Kβ were 2.98 nM and 152 nM, respectively.

Consider `CNC(=O)C(C)Cn1cnc2ccc(-c3cnc(OC)c(NS(=O)(=O)c4ccc(OC)cc4)c3)cc2c1=O` (single isomer, unassigned) [WX204], for which the IC50 came out at 22.5 nM against PI3Kα and 527 nM at PI3Kβ.

As for `CNC[C@H](C)Cn1cnc2ccc(-c3cnc(OC)c(NS(=O)(=O)c4ccc(F)cc4Cl)c3)cc2c1=O` [R009, reference compound], the IC50 at PI3Kα is 10.4 nM; at PI3Kβ it was 108 nM.

As to `COC(=O)C(C)Cn1cnc2ccc(-c3cnc(OC)c(NS(=O)(=O)c4ccc(F)cc4Cl)c3)cc2c1=O` (single isomer, unassigned) [R005, reference compound], the IC50 is 5.84 nM against PI3Kα and 100 nM against PI3Kβ.

For the compound `CNC(=O)C(C)Cn1cnc2ccc(-c3cnc(OC)c(NS(=O)(=O)c4cc(C(F)(F)F)cc(C(F)(F)F)c4)c3)cc2c1=O` (single isomer, unassigned) [WX104], the IC50 against PI3Kα worked out at 38.5 nM; against PI3Kβ, 1950 nM.

Turning to `CNC(=O)[C@@H](C)Cn1cnc2ccc(-c3cnc(OC)c(NS(=O)(=O)c4ccccc4F)c3)cc2c1=O` [WX205], the results for the IC50 against PI3Kα and at PI3Kβ were 3.7 nM and 97.3 nM, respectively.
